# Measurements: article PMC7803991, “Prediction of pharmacological activities from chemical structures with graph convolutional neural networks” (Scientific Reports, 2021)
# Counter-ions that a name gives are not always drawn.
# Biological target: T1, serotonin transporter (SERT) (Homo sapiens, UniProt P31645)
# T1 construct: gene SLC6A4
# Assay: cell-based
# T1 sequence (P31645 whole entry): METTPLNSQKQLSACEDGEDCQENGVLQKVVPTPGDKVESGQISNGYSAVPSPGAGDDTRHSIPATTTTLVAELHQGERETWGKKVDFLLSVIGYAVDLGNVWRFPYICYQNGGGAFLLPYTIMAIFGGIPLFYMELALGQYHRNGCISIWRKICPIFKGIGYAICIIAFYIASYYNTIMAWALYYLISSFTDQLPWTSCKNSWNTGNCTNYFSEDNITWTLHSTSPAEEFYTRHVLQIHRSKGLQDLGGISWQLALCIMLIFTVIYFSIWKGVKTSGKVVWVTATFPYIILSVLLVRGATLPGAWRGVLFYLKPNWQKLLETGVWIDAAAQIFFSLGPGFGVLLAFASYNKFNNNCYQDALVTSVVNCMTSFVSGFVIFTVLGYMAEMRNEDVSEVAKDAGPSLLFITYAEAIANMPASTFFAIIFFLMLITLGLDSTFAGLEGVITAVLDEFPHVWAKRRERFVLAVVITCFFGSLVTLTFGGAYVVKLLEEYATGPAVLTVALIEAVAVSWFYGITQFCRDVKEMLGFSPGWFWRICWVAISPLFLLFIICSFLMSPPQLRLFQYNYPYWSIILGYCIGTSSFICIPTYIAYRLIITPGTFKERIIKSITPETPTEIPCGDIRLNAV
compound,measurement,value
"Clc1ccc2sc(C3CCNCC3)nc2c1 [compound 1, 5-chloro-2-(piperidin-4-yl)-1,3-benzothiazole hydrochloride]",IC50,6.24 nM
